The source made the active and inactive calls. The calls are words filed in the database; no cut-off is given here.
Test system: Mus musculus
Experiment: Antiinflammatory activity in BALB/c mouse assessed as inhibition of heat killed Propionibacterium acnes-induced neutrophil influx at 300 pg, ip administered 12 hrs after Propionibacterium acnes stimulation and measured after 24 hrs by flow cytometry analysis
Type: functional

Row | Structure (SMILES) | inhibition | inhibition (INH) [%]
1 | CC[C@@H](O)/C=C/C=C\C[C@@H](O)/C=C/C=C/C=C\[C@@H](O)[C@@H]1C[C@@H]1C(=O)O | Active | 
2 | CC[C@@H](O)/C=C/C=C\C[C@@H](O)/C=C/C=C/C=C\[C@@H](O)[C@H]1C[C@@H]1C(=O)O |  | 50
3 | CC[C@@H](O)/C=C/C=C\C[C@@H](O)/C=C/C=C/C=C\[C@@H](O)[C@@H]1C[C@H]1C(=O)O | Active | 
4 | CC[C@@H](O)/C=C/C=C\C[C@@H](O)/C=C/C=C/C=C\[C@@H](O)[C@H]1C[C@H]1C(=O)O | Active | 
5 | CC[C@@H](O)/C=C/C=C\C[C@@H](O)/C=C/C=C/C=C\[C@@H](O)CCCC(=O)O [RESOLVIN E1] |  | 31
